Consider five molecules from article doi:10.1101/2023.03.24.534094v2 (biorxiv, 2023).

SMILES strings stand for the structures. Like-named read-outs stand apart in the source and are kept apart here.

Among the targets are BIKE (Homo sapiens, UniProt Q9NSY1); CK2a2 (Homo sapiens, UniProt P19784); CLK1 (Homo sapiens, UniProt P49759); CaMK1d (Homo sapiens, UniProt Q8IU85); GSK3B (Homo sapiens, UniProt P49841).
What all share (assay): biochemical
The target in a further experiment is T1, BRPF1 (Homo sapiens, UniProt P55201).
T1 sequence (P55201 1-1214): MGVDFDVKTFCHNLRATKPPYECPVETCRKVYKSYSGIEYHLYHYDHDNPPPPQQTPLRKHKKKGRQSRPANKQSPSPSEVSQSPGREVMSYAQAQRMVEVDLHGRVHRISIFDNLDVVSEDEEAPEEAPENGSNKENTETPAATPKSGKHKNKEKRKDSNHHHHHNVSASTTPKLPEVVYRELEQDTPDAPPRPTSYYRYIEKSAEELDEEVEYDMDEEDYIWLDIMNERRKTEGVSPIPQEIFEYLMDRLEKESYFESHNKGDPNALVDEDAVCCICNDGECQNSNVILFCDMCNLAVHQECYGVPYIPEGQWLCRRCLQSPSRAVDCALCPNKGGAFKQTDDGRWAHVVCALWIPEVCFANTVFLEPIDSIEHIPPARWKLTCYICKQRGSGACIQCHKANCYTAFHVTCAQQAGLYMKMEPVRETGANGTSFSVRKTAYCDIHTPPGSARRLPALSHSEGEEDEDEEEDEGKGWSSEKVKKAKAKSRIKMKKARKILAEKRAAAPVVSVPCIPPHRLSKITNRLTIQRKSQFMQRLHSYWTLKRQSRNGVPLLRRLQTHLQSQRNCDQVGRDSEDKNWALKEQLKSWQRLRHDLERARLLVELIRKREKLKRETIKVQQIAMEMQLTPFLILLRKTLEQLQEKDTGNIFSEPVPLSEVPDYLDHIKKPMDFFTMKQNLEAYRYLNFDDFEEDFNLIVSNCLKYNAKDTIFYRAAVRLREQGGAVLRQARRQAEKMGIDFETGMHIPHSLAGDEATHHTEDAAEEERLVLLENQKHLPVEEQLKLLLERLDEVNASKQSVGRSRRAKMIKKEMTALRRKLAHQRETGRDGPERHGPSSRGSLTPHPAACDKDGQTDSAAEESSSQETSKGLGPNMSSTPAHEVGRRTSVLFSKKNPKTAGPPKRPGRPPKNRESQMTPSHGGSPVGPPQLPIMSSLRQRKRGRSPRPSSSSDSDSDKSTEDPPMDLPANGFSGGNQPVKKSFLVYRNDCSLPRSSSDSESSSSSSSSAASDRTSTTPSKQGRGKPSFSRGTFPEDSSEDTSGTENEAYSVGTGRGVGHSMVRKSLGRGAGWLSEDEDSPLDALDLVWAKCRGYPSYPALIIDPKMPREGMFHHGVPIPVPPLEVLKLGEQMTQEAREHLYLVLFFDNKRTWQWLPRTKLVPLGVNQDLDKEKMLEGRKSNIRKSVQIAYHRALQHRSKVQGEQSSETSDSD

A further experiment addresses T2, MAP2K6 (Homo sapiens, UniProt P52564).
T2 sequence (P52564 1-334): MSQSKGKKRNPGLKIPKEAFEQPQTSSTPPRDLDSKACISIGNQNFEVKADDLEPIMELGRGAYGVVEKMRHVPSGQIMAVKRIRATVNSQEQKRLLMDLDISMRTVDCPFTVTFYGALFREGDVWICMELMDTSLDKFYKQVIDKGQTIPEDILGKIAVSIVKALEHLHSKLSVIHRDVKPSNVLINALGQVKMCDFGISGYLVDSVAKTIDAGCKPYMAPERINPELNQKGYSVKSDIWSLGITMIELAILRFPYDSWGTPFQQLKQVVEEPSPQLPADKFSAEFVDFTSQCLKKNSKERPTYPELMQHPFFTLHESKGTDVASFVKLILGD

For the next experiment, the target named is T3, NEK2 (Homo sapiens, UniProt P51955).
T3 sequence (P51955 1-445): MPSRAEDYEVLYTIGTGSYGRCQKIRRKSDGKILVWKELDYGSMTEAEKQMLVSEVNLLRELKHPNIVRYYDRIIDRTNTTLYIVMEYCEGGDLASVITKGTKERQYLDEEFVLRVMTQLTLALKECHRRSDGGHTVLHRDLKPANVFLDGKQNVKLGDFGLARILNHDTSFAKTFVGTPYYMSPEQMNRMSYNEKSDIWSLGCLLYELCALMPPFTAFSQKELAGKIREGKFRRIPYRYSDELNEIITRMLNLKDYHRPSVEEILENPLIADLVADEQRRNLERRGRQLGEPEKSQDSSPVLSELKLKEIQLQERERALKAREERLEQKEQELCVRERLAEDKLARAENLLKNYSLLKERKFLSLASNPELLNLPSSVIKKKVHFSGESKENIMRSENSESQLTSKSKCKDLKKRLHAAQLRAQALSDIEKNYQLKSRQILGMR

Sequence of CK2a2 (P19784 whole entry): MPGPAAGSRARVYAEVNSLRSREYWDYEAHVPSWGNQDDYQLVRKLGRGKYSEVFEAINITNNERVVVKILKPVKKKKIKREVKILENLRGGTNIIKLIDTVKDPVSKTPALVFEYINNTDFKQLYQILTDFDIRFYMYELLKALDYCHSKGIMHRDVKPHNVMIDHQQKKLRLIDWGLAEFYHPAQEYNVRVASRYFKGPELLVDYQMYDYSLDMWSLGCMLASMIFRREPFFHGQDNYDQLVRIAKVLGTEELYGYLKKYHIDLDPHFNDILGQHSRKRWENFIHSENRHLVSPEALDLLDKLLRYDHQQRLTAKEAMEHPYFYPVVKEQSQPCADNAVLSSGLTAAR
Sequence of CLK1 (P49759 whole entry): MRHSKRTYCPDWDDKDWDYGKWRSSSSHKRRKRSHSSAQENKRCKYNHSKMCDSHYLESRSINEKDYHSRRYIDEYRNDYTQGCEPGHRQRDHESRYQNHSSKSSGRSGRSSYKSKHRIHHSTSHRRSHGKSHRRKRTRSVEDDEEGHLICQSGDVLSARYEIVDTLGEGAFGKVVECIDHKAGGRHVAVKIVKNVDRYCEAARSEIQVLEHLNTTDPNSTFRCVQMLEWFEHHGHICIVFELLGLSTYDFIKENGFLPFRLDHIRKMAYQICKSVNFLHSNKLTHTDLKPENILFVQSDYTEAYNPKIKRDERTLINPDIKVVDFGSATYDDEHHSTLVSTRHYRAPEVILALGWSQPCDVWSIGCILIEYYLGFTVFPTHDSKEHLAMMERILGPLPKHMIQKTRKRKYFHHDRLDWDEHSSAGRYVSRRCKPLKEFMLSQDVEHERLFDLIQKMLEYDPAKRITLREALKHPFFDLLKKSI
Sequence of BIKE (Q9NSY1 whole entry): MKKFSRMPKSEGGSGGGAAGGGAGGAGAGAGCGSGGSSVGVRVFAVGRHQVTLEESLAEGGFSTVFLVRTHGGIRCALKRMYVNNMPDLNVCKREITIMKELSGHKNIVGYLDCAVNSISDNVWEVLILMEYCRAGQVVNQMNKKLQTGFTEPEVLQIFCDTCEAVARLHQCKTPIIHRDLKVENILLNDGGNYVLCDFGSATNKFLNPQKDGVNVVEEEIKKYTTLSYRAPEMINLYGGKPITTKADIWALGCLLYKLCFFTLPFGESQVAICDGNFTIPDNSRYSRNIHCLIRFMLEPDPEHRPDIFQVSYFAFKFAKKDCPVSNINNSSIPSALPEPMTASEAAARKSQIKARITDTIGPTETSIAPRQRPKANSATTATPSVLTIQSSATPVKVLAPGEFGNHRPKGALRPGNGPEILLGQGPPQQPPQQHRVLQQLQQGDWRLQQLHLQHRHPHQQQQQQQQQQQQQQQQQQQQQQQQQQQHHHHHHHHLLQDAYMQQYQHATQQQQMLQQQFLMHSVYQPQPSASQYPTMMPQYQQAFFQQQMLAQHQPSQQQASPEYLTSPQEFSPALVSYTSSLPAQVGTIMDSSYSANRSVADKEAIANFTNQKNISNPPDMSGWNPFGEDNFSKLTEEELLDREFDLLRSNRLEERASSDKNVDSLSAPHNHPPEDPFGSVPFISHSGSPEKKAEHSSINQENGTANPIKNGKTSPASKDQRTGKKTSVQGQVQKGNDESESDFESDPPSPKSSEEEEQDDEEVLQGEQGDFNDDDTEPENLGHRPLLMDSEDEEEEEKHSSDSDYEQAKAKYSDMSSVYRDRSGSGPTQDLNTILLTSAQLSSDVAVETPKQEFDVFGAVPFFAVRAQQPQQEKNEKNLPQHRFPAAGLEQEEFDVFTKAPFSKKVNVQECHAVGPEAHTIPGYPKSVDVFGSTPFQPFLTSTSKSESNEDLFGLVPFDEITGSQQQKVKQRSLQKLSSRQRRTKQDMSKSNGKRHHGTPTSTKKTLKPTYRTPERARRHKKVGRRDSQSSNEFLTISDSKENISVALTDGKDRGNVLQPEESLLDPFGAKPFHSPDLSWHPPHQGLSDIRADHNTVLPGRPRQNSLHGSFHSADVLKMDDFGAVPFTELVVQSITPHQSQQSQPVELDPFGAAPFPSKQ
Sequence of GSK3B (P49841 whole entry): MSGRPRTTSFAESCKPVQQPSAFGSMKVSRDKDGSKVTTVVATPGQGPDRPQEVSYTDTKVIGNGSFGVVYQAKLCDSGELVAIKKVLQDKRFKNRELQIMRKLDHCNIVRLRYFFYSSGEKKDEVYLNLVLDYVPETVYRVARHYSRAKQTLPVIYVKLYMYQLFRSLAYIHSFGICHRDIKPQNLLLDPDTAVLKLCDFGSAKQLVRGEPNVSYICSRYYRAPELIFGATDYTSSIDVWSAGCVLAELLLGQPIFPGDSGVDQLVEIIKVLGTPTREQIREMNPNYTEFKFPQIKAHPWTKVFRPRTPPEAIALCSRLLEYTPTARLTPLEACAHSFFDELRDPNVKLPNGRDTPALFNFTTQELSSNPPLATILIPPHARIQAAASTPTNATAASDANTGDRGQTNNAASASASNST
Sequence of CaMK1d (Q8IU85 whole entry): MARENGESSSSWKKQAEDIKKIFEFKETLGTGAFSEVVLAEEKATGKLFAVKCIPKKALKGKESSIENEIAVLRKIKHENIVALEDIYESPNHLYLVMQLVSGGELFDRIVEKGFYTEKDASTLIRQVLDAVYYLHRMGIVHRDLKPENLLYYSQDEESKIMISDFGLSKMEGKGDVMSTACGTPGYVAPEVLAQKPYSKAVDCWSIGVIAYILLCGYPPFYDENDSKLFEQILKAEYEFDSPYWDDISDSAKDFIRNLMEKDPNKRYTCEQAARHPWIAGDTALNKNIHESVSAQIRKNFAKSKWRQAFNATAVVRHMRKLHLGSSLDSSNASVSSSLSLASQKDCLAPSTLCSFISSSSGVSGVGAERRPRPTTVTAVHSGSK

`CNc1ncc2cc(-c3cc(Cl)ccc3Cl)c(=O)n(CCCCN)c2n1` [compound 8, 8-(4-Aminobutyl)-6-(2,5-dichlorophenyl)-2-(methylamino)pyrido[2,3-d]pyrimidin-7(8H)-one]: the ΔTm at 10 µM on BIKE (read-out: dTm 8) is 1.1 °C; at BRPF1 (read-out: dTm 8) it was -0.5 °C; at CK2a2 (read-out: dTm 8), 0 °C; on CLK1 (read-out: dTm 8) it was 0.6 °C; at CaMK1d (read-out: dTm 8) it was 2.4 °C; at GSK3B (read-out: dTm 8) it was 1 °C. The values for the ΔTm at 10 µM at MAP2K6 (read-out: dTm 8) and on NEK2 (read-out: dTm 8) were 1.3 °C and 1.9 °C, respectively.
For `CNc1ncc2cc(-c3cc(Br)ccc3Br)c(=O)n(CCCCN)c2n1` [compound 11, 8-(4-Aminobutyl)-6-(2,5-dibromophenyl)-2-(methylamino)pyrido[2,3-d]pyrimidin-7(8H)-one], the ΔTm at 10 µM at BIKE (read-out: dTm 11) was 1 °C; on BRPF1 (read-out: dTm 11), -0.7 °C; on CK2a2 (read-out: dTm 11), 0.1 °C; on CLK1 (read-out: dTm 11) it was 0.4 °C; at CaMK1d (read-out: dTm 11), 2.3 °C; at GSK3B (read-out: dTm 11), 0.8 °C. The ΔTm at 10 µM at MAP2K6 (read-out: dTm 11) came to 1.6 °C; on NEK2 (read-out: dTm 11), 1.7 °C.
Regarding `CNc1ncc2cc(-c3cc(C(F)(F)F)ccc3Cl)c(=O)n(CCCCN)c2n1` [compound 9, 8-(4-Aminobutyl)-6-(2-chloro-5-(trifluoromethyl)phenyl)-2-(methylamino)pyrido[2,3-d]pyrimidin-7(8H)-one], the ΔTm at 10 µM is 0.6 °C at BIKE (read-out: dTm 9); -0.4 °C on BRPF1 (read-out: dTm 9); 0 °C on CK2a2 (read-out: dTm 9); 0.4 °C at CLK1 (read-out: dTm 9); 2.3 °C at CaMK1d (read-out: dTm 9); 0.8 °C on GSK3B (read-out: dTm 9). The ΔTm at 10 µM at MAP2K6 (read-out: dTm 9) was 0.8 °C; on NEK2 (read-out: dTm 9) it was 1.3 °C.
In the case of `CNc1ncc2cc(-c3cc(F)c(-c4cccc(C)n4)cc3F)c(=O)n(CCCCN)c2n1` [compound 12, 8-(4-Aminobutyl)-6-(2,5-difluoro-4-(6-methylpyridin-2-yl)phenyl)-2-(methylamino)pyrido[2,3-d]pyrimidin-7(8H)-one], the ΔTm at 10 µM was 2.2 °C on BIKE (read-out: dTm 12); -1.5 °C at BRPF1 (read-out: dTm 12); -1 °C at CK2a2 (read-out: dTm 12); -0.1 °C at CLK1 (read-out: dTm 12); 3.1 °C on CaMK1d (read-out: dTm 12); 1.7 °C at GSK3B (read-out: dTm 12). Besides, the ΔTm at 10 µM on MAP2K6 (read-out: dTm 12) was determined as 3.8 °C; on NEK2 (read-out: dTm 12), 7.2 °C.
For the molecule `CNc1ncc2cc(-c3cc(Cl)ccc3Br)c(=O)n(CCCCN)c2n1` [compound 10, 8-(4-Aminobutyl)-6-(2-bromo-5-chlorophenyl)-2-(methylamino)pyrido[2,3-d]pyrimidin-7(8H)-one], the ΔTm at 10 µM on BIKE (read-out: dTm 10) was 1.1 °C; on BRPF1 (read-out: dTm 10), -0.3 °C; on CK2a2 (read-out: dTm 10), 0.2 °C; on CLK1 (read-out: dTm 10), 0.4 °C; at CaMK1d (read-out: dTm 10), 2 °C; at GSK3B (read-out: dTm 10), 0.8 °C. The ΔTm at 10 µM at MAP2K6 (read-out: dTm 10) came to 1.5 °C; at NEK2 (read-out: dTm 10) it was 2.1 °C.
